Entries after “also recorded” stand apart in the source; their conditions may differ. Like-named read-outs stand apart in the source and are kept apart here.
How the values were obtained:
[1] = cited from earlier work; for Fear behavior during the fear extinction session: during extinction training; for Conditioned fear when retention of extinction was assessed: the following day
[2] = rat, cited from earlier work
CYP2D6 = CYP2D6 (Homo sapiens, UniProt P10635); settings: cited from earlier work
CYP2C19 = CYP2C19 (Homo sapiens, UniProt P33261); settings: cited from earlier work
[3] = Human Equivalent Dose (HED) of NOAEL; settings: for Human Equivalent Dose (HED): NOAEL (human), total dose / Human Equivalent Dose (HED): Neurotoxicology NOAEL (human), total dose: assuming a 60 kg human; for NOAEL: human, po
[4] = No adverse effect level (NOAEL) in rat, p.o.; settings: in vivo, po
[5] = Maximum Recommended Starting Dose (MRSD) and doses tested in humans; settings: expected value
[6] = Subjective report: physiological and subjective effects after oral administration (Subject A); assay type: in vivo, human
Description: To determine the physiological and subjective effects of the hydrochloride salt of R-MDMA (oral administration, 250 (±) 10 mg), supplemented with acetyl-L-carnitine (ALCAR), alpha lipoic acid (ALA), ascorbate to reduce or prevent neurotoxicity.
2.2 g of racemic MDMA was obtained and dissolved in methanol at a stock concentration of 10 mg/mL. A ChiralPak Ad-H column (150×4.6 mm, 5 μm particle size) was flushed with mobile phase solution on an Agilent 1260 machine with a variable UV-Vis detector and 10 uL of the final concentrated solution (1:100) was injected on a 35 min run cycle. Due to the preliminary nature of the testing, no further characterization was done. The laevo-rich form was the first eluted. It was collected and roto-evaporated into solid form and then dried over magnesium pellets. The product, when dried and washed thoroughly, was sent out for anonymized 1H-NMR testing to determine identity.
Vitals were taken hourly, and were taken four times between hours two and three. Heart rate rose for a short period to 115-125 from 85 resting.
MDMA enantiomers were recombined in a 9:1 ratio through crystallization and washing.

[7] = p.o. in rat (SR(±)MDMA: with single housing); cited from earlier work
[8] = cited from earlier work
[9] = dog, p.o.; cited from earlier work
[10] = dog, female and male, p.o.; cited from earlier work
[11] = cited from earlier work; remark: listed apart in the source
[12] = mouse; cited from earlier work
[13] = tested on: serotonergic presynaptic markers; settings: primate study; cited from earlier work
[14] = 100 mg, healthy volunteers, brain imaging studies

Chain of CYP2D6 (P10635 whole entry): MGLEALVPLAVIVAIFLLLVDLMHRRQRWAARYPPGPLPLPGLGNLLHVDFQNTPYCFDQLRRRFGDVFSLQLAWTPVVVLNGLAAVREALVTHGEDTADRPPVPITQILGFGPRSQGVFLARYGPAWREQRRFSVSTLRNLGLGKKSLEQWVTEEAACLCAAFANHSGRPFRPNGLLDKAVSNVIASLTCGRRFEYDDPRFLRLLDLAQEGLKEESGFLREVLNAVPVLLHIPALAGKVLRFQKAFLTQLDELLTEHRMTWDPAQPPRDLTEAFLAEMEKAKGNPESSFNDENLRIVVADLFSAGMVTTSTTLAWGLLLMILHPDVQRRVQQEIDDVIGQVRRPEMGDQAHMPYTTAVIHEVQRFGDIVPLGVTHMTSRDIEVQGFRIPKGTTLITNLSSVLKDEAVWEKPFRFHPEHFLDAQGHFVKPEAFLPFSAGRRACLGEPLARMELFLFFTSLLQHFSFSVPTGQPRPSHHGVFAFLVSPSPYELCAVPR
Chain of CYP2C19 (P33261 whole entry): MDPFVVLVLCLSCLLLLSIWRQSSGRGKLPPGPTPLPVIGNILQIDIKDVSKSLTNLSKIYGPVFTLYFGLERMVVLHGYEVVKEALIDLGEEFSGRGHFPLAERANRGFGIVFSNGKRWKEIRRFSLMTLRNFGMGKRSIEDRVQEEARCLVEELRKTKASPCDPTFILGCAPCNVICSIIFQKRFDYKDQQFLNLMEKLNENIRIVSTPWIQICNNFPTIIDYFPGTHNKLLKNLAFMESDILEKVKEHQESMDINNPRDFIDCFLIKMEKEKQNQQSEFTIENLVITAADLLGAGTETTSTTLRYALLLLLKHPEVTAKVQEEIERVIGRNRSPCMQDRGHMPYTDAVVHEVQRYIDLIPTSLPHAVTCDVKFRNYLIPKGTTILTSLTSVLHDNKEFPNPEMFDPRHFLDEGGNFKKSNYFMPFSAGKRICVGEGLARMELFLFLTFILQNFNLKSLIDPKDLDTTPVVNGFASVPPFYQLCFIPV

SMILES: CN[C@@H](C)Cc1ccc2c(c1)OCO2 [S-MDMA, (S)-1-(1,3-Benzodioxol-5-yl)-N-methylpropan-2-amine]
- Fear behavior during the fear extinction session [1]: reduced conditioned fear behavior
- Conditioned fear when retention of extinction was assessed [1]: a reduction thereof was not observed
- Neurotoxicology NOAEL ([2]; i.v.): 20 mg/kg i.v2,3
- Affinity for CYP2D6 compared with the other enantiomer (CYP2D6): higher affinity
- Metabolism by CYP2C19, enantiomer preference (CYP2C19): preferentially metabolizes
- Human Equivalent Dose (HED): NOAEL (human), total dose ([3]; 9:1 R:S MDMA: expected, p.o.): mg/kg → <2080
- Human Equivalent Dose (HED): Neurotoxicology NOAEL (human), total dose ([3]; 9:1 R:S MDMA: i.v.): 342.9 mg*
- NOAEL [3]: < 34 mg/kg
- NOAEL [4]: < 100 mg/kg
- Expected MSRD [5]: 150 mg

SMILES: CN[C@H](C)Cc1ccc2c(c1)OCO2 [R-MDMA, (R)-1-(1,3-Benzodioxol-5-yl)-N-methylpropan-2-amine]
- Duration of the whole experience ([6]; R-MDMA HCl 250 (±) 10 mg oral): approximately 7 hours
- Peak of the experience, time after ingestion ([6]; R-MDMA HCl 250 (±) 10 mg oral): around two
- Start of come-down ([6]; R-MDMA HCl 250 (±) 10 mg oral): ~4 h
- Start of noticeable effects off-baseline ([6]; R-MDMA HCl 250 (±) 10 mg oral): around 40 minutes
- Blood pressure ([6]; R-MDMA HCl 250 (±) 10 mg oral, monitor of low precision, result inconclusive): increased for a short period
- Hyperthermia or hypothermia ([6]; single oral dose, Subject A): No noticeable hyperthermia or hypothermia
- Jaw clenching ([6]; single oral dose, Subject A): No incidence of jaw clenching
- Stimulant effects compared with racemic MDMA ([6]; single oral dose, Subject A): almost entirely absent; also recorded: reduction in stimulation
- Heart rate ([6]; single oral dose, Subject A, R-MDMA HCl 250 (±) 10 mg with supplements (rise from 85 resting), 9:1 R:S MDMA 230-240 mg): 115-125
- Fear behavior during the fear extinction session [1]: did not reduce fear behavior
- Conditioned fear when retention of extinction was assessed [1]: significantly reduced conditioned fear
- No adverse effect level (NOAEL) [7]: NOAEL: >200 mg/kg
- Neurotoxicology NOAEL ([2]; i.v.): 50 mg/kg i.v2
- AUC in comparison to S-MDMA ([8]; in vivo): increased AUC
- Half-life in comparison to S-MDMA ([8]; in vivo): longer half-life
- Human Equivalent Dose (HED): NOAEL (human), total dose ([3]; 9:1 R:S MDMA: expected, p.o.): mg/kg → >4100
- Human Equivalent Dose (HED): Neurotoxicology NOAEL (human), total dose ([3]; 9:1 R:S MDMA: i.v.): 450 mg*
- NOAEL [3]: > 68 mg/kg

SMILES: CNC(C)Cc1ccc2c(c1)OCO2 (stereo not drawn) [MDMA, 3,4-methylenedioxymethamphetamine]
- No adverse effect level (NOAEL) [9]: NOAEL: 15 mg/kg in
- Neurotoxicology NOAEL [10]: 4 mg/kg/week p.o
- Duration of subjective effects [11, 14]: approximately 4.5 hours
- Time of peak subjective effects [11, 14]: 100 min
- Duration of effects ([11]; patients with PTSD receiving one dose): 4 to 5 h
- Onset of action after the initial dose ([11]; patients with PTSD, 100-125 mg): 45 to 75 min
- Time of peak drug effects ([11]; patients with PTSD, 100-125 mg): 2 to 5 h
- Duration of effects ([11]; patients with PTSD, with the booster dose): 5 to 6 h
- Decrease of subjective effects to baseline values ([11]; prior study (Harris et al.)): 5 to 6 h
- Onset of subjective effects ([11]; prior study (Harris et al.)): approximately 45 mins
- Peak of subjective effects ([11]; prior study (Harris et al.)): 1.5 to 2 h
- Critical period peak [12]: 40 h
- Critical period starts to open, time after the acute dose [12]: about six
- Serotonergic presynaptic markers [13]: profound reductions in all three serotonergic presynaptic markers
- No adverse effect level (NOAEL) [7]: NOAEL: 100 mg/kg
- Neurotoxicology NOAEL ([2]; female, p.o.): 25 mg/kg/week p.o1
- Neurotoxicology NOAEL ([2]; male, p.o.): 20 mg/kg/week p.o1.
- Elimination half-life ([8]; doses ranging from 50-125 mg): 7 to 9 h
- Time to peak plasma concentration ([8]; humans, doses 100-125 mg): 2 to 3 h
- Human Equivalent Dose (HED): NOAEL (human) ([3]; 9:1 R:S MDMA: expected, p.o.): 34 mg/kg →
- Human Equivalent Dose (HED): Neurotoxicology NOAEL (human) ([3]; 9:1 R:S MDMA: i.v.): NOAEL (human): 6 mg/kg
- Human Equivalent Dose (HED): NOAEL (human), total dose ([3]; 9:1 R:S MDMA: expected, p.o.): 2080 mg
- Human Equivalent Dose (HED): Neurotoxicology NOAEL (human), total dose ([3]; 9:1 R:S MDMA: i.v.): 342.9 mg*

— patent US20240335418A1, “SAFER PSYCHOACTIVE COMPOSITIONS” (Arcadia Medicine, Inc., priority 2021, published 2024)
